This assay concerns the target T1, BRD4 BD2 (Homo sapiens, UniProt O60885, Y97A).
T1 construct: BRD4 (1-477) (Y97A) and (Y390A); made in house; host or cells: E. coli (pET15b vector)
In words: TR-FRET binding assay, BRD4 BD2 (BD1-mutated protein). Particulars: read-out: pIC50 in the BRD4 BD2 assay (converted). As for the experimental part:
Time Resolved Fluorescence Resonance Energy Transfer (TR-FRET) Assay Binding was assessed using a time resolved fluorescent resonance energy transfer binding assay. This utilises a 6 His purification tag at the N-terminal of the proteins as an epitope for an anti-6 His antibody labeled with Europium chelate (PerkinElmer AD0111) allowing binding of the Europium to the proteins which acts as the donor fluorophore. A small molecule, high affinity binder of the bromodomains BRD2, BRD3, BRD4 and BRDT has been labeled with Alexa Fluor647 (Reference Compound X) and this acts as the acceptor in the FRET pair.
In the absence of a competing compound, excitation of the Europium causes the donor to emit at λ618 nm which excites the Alexa labelled bromodomain binding compound leading to an increased energy transfer that is measurable at λ647 nM. In the presence of a sufficient concentration of a compound that can bind these proteins, the interaction is disrupted leading to a quantifiable drop in fluorescent resonance energy transfer.
The binding of the compounds of formula (I) to Bromodomains BRD2, BRD3, BRD4 and BRDT was assessed using mutated proteins to detect differential binding to either Binding Domain 1 (BD1) or Binding Domain 2 (BD2) on the bromodomain. These single residue mutations in the acetyl lysine binding pocket greatly lower the affinity of the fluoroligand (Reference Compound X) for the mutated domain (>1000 fold selective for the non-mutated domain). Therefore in the final assay conditions, binding of the fluoroligand to the mutated domain cannot be detected and subsequently the assay is suitable to determine the binding of compounds to the single non-mutated bromodomain.
Recombinant Human Bromodomains [(BRD2 (1-473) (Y113A) and (Y386A), BRD3 (1-435) (Y73A) and (Y348A) BRD4 (1-477) (Y97A) and (Y390A) and BRDT (1-397) (Y66A) and (Y309A)] were expressed in E. coli cells (in pET15b vector for BRD2/3/4 and in pET28a vector for BRDT) with a 6-His tag at the N-terminal. The His-tagged Bromodomain pellet was resuspended in 50 mM HEPES (pH7.5), 300 mM NaCl, 10 mM imidazole & 1 μl/ml protease inhibitor cocktail and extracted from the E. coli cells using sonication and purified using a nickel sepharose high performance column, the proteins were washed and then eluted with a linear gradient of 0-500 mM imidazole with buffer 50 mM HEPES (pH7.5), 150 mM NaCl, 500 mM imidazole, over 20 column volumes. Final purification was completed by Superdex 200 prep grade size exclusion column. Purified protein was stored at −80° C. in 20 mM HEPES pH 7.5 and 100 mM NaCl. Protein identity was confirmed by peptide mass fingerprinting and predicted molecular weight confirmed by mass spectrometry.
All assay components were dissolved in buffer composition of 50 mM HEPES pH7.4, 50 mM NaCl, 5% Glycerol, 1 mM DTT and 1 mM CHAPS. The final concentration of bromodomain proteins were 10 nM and the Alexa Fluor647 ligand was at Kd. These components were premixed and 5 μl of this reaction mixture was added to all wells containing 50 nl of various concentrations of test compound or DMSO vehicle (0.5% DMSO final) in Greiner 384 well black low volume microtitre plates and incubated in dark for 30 minutes at rt. 5 μl of detection mixture containing 1.5 nM final concentration anti-6His Europium chelate was added to all wells and a further dark incubation of at least 30 minutes was performed. Plates were then read on the Envision platereader, (λex=317 nm, donor λem=615 nm; acceptor λem=665 nm; Dichroic LANCE dual). Time resolved fluorescent intensity measurements were made at both emission wavelengths and the ratio of acceptor/donor was calculated and used for data analysis. All data was normalized to the mean of 16 high (inhibitor control—Example 11 of WO 2011/054846A1) and 16 low (DMSO) control wells on each plate. A four parameter curve fit of the following form was then applied: y=a+((b−a)/(1+(10^/10^)^d) […]
For orientation: In TR-FRET formats the signal depends on donor and acceptor labels being close together.

Where a name gives a salt, the structure may show the parent alone.

Take `CC(=O)N1c2ccccc2[C@H](Nc2ccsc2)[C@@H](C)[C@@H]1C` (racemic) [Example 12, rac-1-((2S,3R,4R)-2,3-dimethyl-4-(thiophen-3-ylamino)-3,4-dihydroquinolin-1(2H)-yl)ethanone]: the IC50 was 100 nM.

As to `CC(=O)N1c2ccccc2[C@H](Nc2ccc(Cl)cc2)[C@@H](C)[C@@H]1C` (racemic) [Example 13, rac-1-((2S,3R,4R)-4-((4-chlorophenyl)amino)-2,3-dimethyl-3,4-dihydroquinolin-1(2H)-yl)ethanone], the IC50 was 100 nM.

For `COc1ccc(N[C@H]2c3ccccc3N(C(C)=O)[C@@H](C)[C@@H]2C)cc1` (racemic) [Example 15, rac-1-((2S,3R,4R)-4-((4-methoxyphenyl)amino)-2,3-dimethyl-3,4-dihydroquinolin-1(2H)-yl)ethanone], the IC50 is 100 nM.

With `CC(=O)N1c2ccccc2[C@H](Nc2cccc(C)c2)[C@@H](C)[C@@H]1C` (racemic) [Example 16, rac-1-((2S,3R,4R)-2,3-dimethyl-4-(m-tolylamino)-3,4-dihydroquinolin-1(2H)-yl)ethanone], the IC50 was 100 nM.

`CC(=O)N1c2ccccc2[C@H](Nc2ccc(C)cc2)[C@@H](C)[C@@H]1C` (racemic) [Example 20, rac-1-((2S,3R,4R)-2,3-dimethyl-4-(p-tolylamino)-3,4-dihydroquinolin-1(2H)-yl)ethanone]: the IC50 is 100 nM.

In the case of `CC(=O)N1c2ccccc2[C@H](Nc2cncc(Cl)c2)[C@@H](C)[C@@H]1C` (racemic) [Example 22, rac-1-((2S,3R,4R)-4-((5-chloropyridin-3-yl)amino)-2,3-dimethyl-3,4-dihydroquinolin-1(2H)-yl)ethanone], the IC50 was 100 nM.

As for `CC(=O)N1c2ccccc2[C@H](Nc2ccnc(C)c2)[C@@H](C)[C@@H]1C` (racemic) [Example 23, rac-1-((2S,3R,4R)-2,3-dimethyl-4-((2-methylpyridin-4-yl)amino)-3,4-dihydroquinolin-1(2H)-yl)ethanone], the IC50 is 1000 to 100000 nM.

Consider `CC(=O)N1c2ccccc2[C@H](Nc2ccc(C#N)cc2)[C@@H](C)[C@@H]1C1CC1` (racemic) [Example 30, rac-4-(((2S,3R,4R)-1-Acetyl-2-cyclopropyl-3-methyl-1,2,3,4-tetrahydroquinolin-4-yl)amino)benzonitrile], for which the IC50 is 100 nM.

Consider `CC(=O)N1c2ccccc2[C@H](Nc2ccc(F)cc2)[C@@H](C)[C@@H]1C1CC1` (racemic) [Example 32, rac-1-((2S,3R,4R)-2-Cyclopropyl-4-((4-fluorophenyl)amino)-3-methyl-3,4-dihydroquinolin-1(2H)-yl)ethanone], for which the IC50 is 100 nM.

Take `CC(=O)N1c2ccccc2[C@H](Nc2cncc(C)n2)[C@@H](C)[C@@H]1C1CC1` (racemic) [Example 48, rac-1-((2S,3R,4R)-2-cyclopropyl-3-methyl-4-((6-methylpyrazin-2-yl)amino)-3,4-dihydroquinolin-1(2H)-yl)ethanone]: the IC50 was 1000 to 100000 nM.

Take `CC(=O)N1c2ccccc2[C@H](Nc2ncccc2O)[C@@H](C)[C@@H]1C1CC1` (racemic) [Example 49, rac-1-((2S,3R,4R)-2-cyclopropyyl-4-((3-hydroxypyridin-2-yl)amino)-3-methyl-3,4-dihydroquinolin-1(2H)-yl)ethanone]: the IC50 was 1000 to 100000 nM.

`CC(=O)N1c2ccccc2[C@H](Nc2cccc(C#N)n2)[C@@H](C)[C@@H]1C1CC1` (racemic) [Example 50, rac-6-(((2S,3R,4R)-1-acetyl-2-cyclopropyl-3-methyl-1,2,3,4-tetrahydroquinolin-4-yl)amino)picolinonitrile]: the IC50 is 1000 to 100000 nM.

Take `CC(=O)N1c2ccccc2[C@H](Nc2ccccc2)[C@@H](C)[C@@H]1CC(F)(F)F` (racemic) [Example 53, rac-1-((2S,3R,4R)-3-methyl-4-(phenylamino)-2-(2,2,2-trifluoroethyl)-3,4-dihydroquinolin-1(2H)-yl)ethanone]: the IC50 was 1000 to 100000 nM.

As to `COC[C@H]1[C@H](C)[C@@H](Nc2ccccc2)c2ccccc2N1C(C)=O` (racemic) [Example 54, rac-1-((2R,3R,4R)-2-(methoxymethyl)-3-methyl-4-(phenylamino)-3,4-dihydroquinolin-1(2H)-yl)ethanone], the IC50 was 1000 to 100000 nM.

For the molecule `CC[C@H]1[C@H](C)[C@@H](Nc2ccc(C#N)cc2)c2cc(F)ccc2N1C(C)=O` (racemic) [Example 62, rac-4-(((2S,3R,4R)-1-acetyl-2-ethyl-6-fluoro-3-methyl-1,2,3,4-tetrahydroquinolin-4-yl)amino)benzonitrile], the IC50 is 100 nM.

With `CC(=O)N1c2cc(O)ccc2[C@H](Nc2cccc(C)n2)[C@@H](C)[C@@H]1C1CC1` (racemic) [Example 65, rac-1-((2S,3R,4R)-2-cyclopropyl-7-hydroxy-3-methyl-4-((6-methylpyridin-2-yl)amino)-3,4-dihydroquinolin-1(2H)-yl)ethanone], the IC50 is 1000 to 100000 nM.

In the case of `CC(=O)N1c2ccc(S(C)(=O)=O)cc2[C@H](Nc2cccc(C)n2)[C@@H](C)[C@@H]1C1CC1` (racemic) [Example 67, rac-1-((2S,3R,4R)-2-cyclopropyl-3-methyl-4-((6-methylpyridin-2-yl)amino)-6-(methylsulfonyl)-3,4-dihydroquinolin-1(2H)-yl)ethanone], the IC50 was 1000 to 100000 nM.

As for `CC(=O)N1c2ccc(S(=O)(=O)C(C)C)cc2[C@H](Nc2cccc(C)n2)[C@@H](C)[C@@H]1C1CC1` (racemic) [Example 68, rac-1-((2S,3R,4R)-2-cyclopropyl-6-(isopropylsulfonyl)-3-methyl-4-((6-methylpyridin-2-yl)amino)-3,4-dihydroquinolin-1(2H)-yl)ethanone], the IC50 was 1000 to 100000 nM.

As for `CC(=O)N1c2ccc(N3CCNCC3)cc2[C@H](Nc2ccccc2)[C@@H](C)[C@@H]1C` (racemic) [Example 69, rac-1-((2S,3R,4R)-2,3-dimethyl-4-(phenylamino)-6-(piperazin-1-yl)-3,4-dihydroquinolin-1(2H)-yl)ethanone], the IC50 is 100 nM.

Turning to `CC(=O)N1c2ccc(N3CCOCC3)cc2[C@H](Nc2ccccc2)[C@@H](C)[C@@H]1C` (racemic) [Example 70, rac-1-((2S,3R,4R)-2,3-dimethyl-6-morpholino-4-(phenylamino)-3,4-dihydroquinolin-1(2H)-yl)ethanone], the IC50 is 100 nM.

`CC(=O)N1c2ccc(N3CCNC(C)C3)cc2[C@H](Nc2ccccc2)[C@@H](C)[C@@H]1C` (mixture of isomers) [Example 72, 1-((rac-2S,3R,4R)-2,3-dimethyl-6-(3-methylpiperazin-1-yl)-4-(phenylamino)-3,4-dihydroquinolin-1(2H)-yl)ethanone, formate salt]: the IC50 was 100 nM.

`CC(=O)N1c2ccc(N3CCC(N)CC3)cc2[C@H](Nc2ccccc2)[C@@H](C)[C@@H]1C` (racemic) [Example 74, rac-1-((2S,3R,4R)-6-(4-aminopiperidin-1-yl)-2,3-dimethyl-4-(phenylamino)-3,4-dihydroquinolin-1(2H)-yl)ethanone, hydrochloride]: the IC50 was 100 nM.

For `CC(=O)N1c2ccc(N3CCOC(C)C3)cc2[C@H](Nc2ccccc2)[C@@H](C)[C@@H]1C` (mixture of isomers) [Example 77, 1-((rac-2S,3R,4R)-2,3-dimethyl-6-(2-methylmorpholino)-4-(phenylamino)-3,4-dihydroquinolin-1(2H)-yl)ethanone], the IC50 is 100 nM.
